Source: publication PMC7503308, “A Novel Urease Inhibitor of Ruminal Microbiota Screened through Molecular Docking” (International Journal of Molecular Sciences, 2020)
Read-outs that look alike come from different tables or passages of the source.

What was measured:
[1] = parameters: method as in PMID 19050709; conditions: human patients; cited from earlier work
ruminal microbial urease = experiment: Urease inhibition assay (Berthelot alkaline phenol-hypochlorite method); type: biochemical, rumen bacteria of Chinese Holstein dairy cows; conditions: ruminal microbial urease, 37 °C, 30 min, pH 7.5
Procedure: Rumen fluid samples were collected from five Chinese Holstein dairy cows with permanent rumen fistula 3 h after feeding a total mixed ration in the morning. All the operations were conducted in accordance with the protocol approved by the Animal Care and Use Committee for Livestock of the Institute of Animal Sciences, Chinese Academy of Agricultural Sciences (Permit Number: IAS2019-14, Permit Date: 22-03-2019). All rumen fluid samples were filtered by a six layer sterilized medical gauze and mixed in a sterilized beaker before being evenly distributed into different 50 mL tubes and stored in liquid nitrogen. The deforested samples were centrifuged at 12,000× g for 10 min at 4 °C, then the supernatant was removed from the tube. The remaining sediments were resuspended in a HEPES buffer solution (pH 7.5, 50 mM) and then centrifuged at 12,000× g for 10 min at 4 °C. The supernatant was discarded and the remaining rumen bacteria were collected and stored at −80 °C for later urease extraction. All the sample handing processes were conducted on an ice bath. […]
In vitro urease inhibition screening assays were conducted to further narrow the virtual screened compounds for further IC50 determination and kinetic characterization. […] The ammonia that was produced was measured using 50 μL of a phenol reagent containing 10.0 g/L phenol and 50 mg/L of sodium nitroprusside, and 50 μL of alkali reagent containing 5 g/L sodium hydroxide and 8.4 mL/L of sodium hypochlorite solution, at 37 °C for 30 min. The absorbance of each well was measured at 625 nm by a micro plate spectrophotometer (Thermo Scientific Varioskan Flash G-282, Thermo Scientific, Waltham, MA, USA). The endogenous nitrogen (blank) was measured by adding a 70 μL HEPES buffer (pH 7.5, 50 mM) containing no urea and 20 μL methanol solution in the first 30 min of the reaction mixture. The 100% initial activity was determined by adding a 15 μL methanol solution in the first 30 min of the reaction mixture. […]

ruminal microbiota [2] = experiment: Ruminal microbial fermentation in vitro (six generations): urea and NH3-N; type: cell-based, rumen fluid of Chinese Holstein dairy cows; conditions: 100 μM compound, 24 h, p < 0.01
Procedure: Seven solutions were prepared for the anaerobic media as solution A (3 g/L K2HPO4), solution B (0.6 g/L CaCl2, 3 g/L K2HPO4, 6 g/L NaCl, 0.6 g/L MgSO4·7H2O), solution C (6 g/L K2HPO4), solution D (1.6 g/L CaCl2·2H2O, 6 g/L K2HPO4, 12 g/L NaCl, 2.5 g/L MgSO4·7H2O), trace element solution (300 mg/L H3BO3, 100 mg/L ZnSO4·7H2O, 30 mg/L MnCl2·4H2O, 20 mg/L CoCl2·6H2O, 30 mg/L Na2MoO4·2H2O, 10 mg/L Na2SeO3, 20 mg/L NiCl2, 10 mg/L CuCl2·2H2O, 150 mg/L FeCl2·4H2O), volatile fatty acid (VFA) mixed solution (17 mL acetic acid, 6 mL propionic acid, 4 mL butyric acid, 1 mL n-valeric acid, 1 mL isovaleric acid, and 1 mL isobutyric acid), and hemin solution, prepared by diluting 50 mg of Haemon in NaOH (1 N solution) and made up to 100 mL with distilled water. Each liter of anaerobic media contained 30 mL of autoclaved rumen fluid supernatant, 0.5 g of glucose, 0.5 g of soluble starch, 0.5 g of cellobiose, 0.5 g of maltose, 0.5 g of […], 0.5 g of tripticase, 0.5 g of yeast extract, 8 g of NaHCO3, 0.1 mL of trace elements solution, 15 mL solution A, 15 mL solution B, 0.5 g of cysteine hydrochloride, 10 mL of hemin solution, 3.1 mL of VFA mixed solution, and 1 mg resazurin. The anaerobic urea solution was prepared using an anaerobic glove box, by dissolving 2.5 g of urea in a 50 mL anaerobic diluent. This diluent consisted of 3.8 mL of salt solution C, 3.8 mL of salt solution D, 5 mL of 8% sodium Na2CO3, 1 mL of 0.1% resazurin, 0.5 g of cysteine hydrochloride dissolved in distilled water and made up to 1000 mL and distributed into 50 mL anaerobic bottles. All the anaerobic bottles were sterilized by autoclave. Prior to the inoculation, fresh frozen rumen fluid samples, pretreated as described previously, were removed from the freezer, thawed, homogenized, and used immediately. […] Chromatographic gradients were referenced to the paper.

ruminal microbiota [3] = conditions: cited from earlier work
jack bean urease = system: jack bean urease; parameters: method as in PMID 17418881; conditions: cited from earlier work
H. pylori urease = system: H. pylori urease; parameters: method as in PMID 23567958; conditions: cited from earlier work
Caco-2 cells = experiment: CCK8 colorimetric cytotoxicity assay; type: cell-based; conditions: concentration below 100 μM, 24 h, p > 0.05
Procedure: A standard CCK8 colorimetric assay was employed for the evaluation of cytotoxic activity of compound 6238-0047 using 96-well flat bottomed microplates. Dulbecco’s Modified Eagle Medium (GIBCO) with 10% FBS (fetal bovine serum, FBS, Gibco) and 1% NEAA was used for the culturing of Caco-2 cells (ATCC, Manassas, VA, USA), and the medium was supplemented with 100 μg/mL of streptomycin and 100 IU/mL of penicillin. The medium was kept in 5% CO2 and incubated at 37 °C. The exponentially grown cells were harvested, counted using a hemocytometer and diluted with the medium. The cell culture was diluted to a density of 1 × 10^5 cells/mL and transferred into a 96-well plate with 135 μL or […]. The medium was incubated for 24 h for cell attachment. Following this, 15 μL of compounds with different final concentrations of 1, 10, 25, 50, and 100 μM in the experimental group and fresh medium as a control group, were added to a plate with five replicates for each. After 24 h of incubation at 37 °C and kept in 5% CO2, 15 μL of CCK8 was added to each well and after 2 h the absorbance was measured at 450 nm using a microplate reader. The formula for calculating the relative cell viability was as follows:Relative cell viability (%) = absorbance of experimental group/absorbance of control group × 100%

rumen microbiota = system: rumen microbiota; parameters: method as in PMID 10682821; conditions: cows with permanent rumen fistula, cited from earlier work

Row | SMILES | Patients with dermatological, neurological or hematological issues necessitating discontinuation of therapy [1] | IC50 (ruminal microbial urease) [µM] | Amount of urea degradation vs control group (ruminal microbiota [2]; 16.65 mM urea) | NH3-N concentration / production vs control group (ruminal microbiota [2]) | AHA degradation (ruminal microbiota [3]) [%] | IC50 (jack bean urease) [µM] | IC50 (H. pylori urease) [µM] | Relative cell viability of Caco-2 cell culture (Caco-2 cells) | Ruminal ammonia nitrogen production vs control group (rumen microbiota; fifteenth day of treatment) | Ruminal ammonia nitrogen production vs control group (rumen microbiota; second day of treatment)
1 | CC(=O)NO [AHA, acetohydroxamic acid, reference compound] | more than 20% | 158 | significantly lowered the amount of urea degradation | significantly lower than the control group | 100 | 60 | 18.2 | no significant influence | – | –
2 | CCCCNP(N)(N)=S [NBPT, N-(n-butyl) thiophosphoric triamide] | – | – | – | – | – | – | – | – | tended to approach the control group | lower than that of the control group
